Activity calls are given as the source filed them. No cut-off for these calls is given here.
Assays:
[1] = biological target: T1, Speckle-type POZ protein-Bromodomain-containing protein 4 (Homo sapiens, UniProt O60885+O43791); assay: PROTAC activity at SPOP/BRD4-S in human HT-29 cells assessed as induction of BRD4 short isoform degradation at 0.5 to 5 uM incubated for 24 hrs by Western blotting analysis; format: cell-based; conditions: dose 0.5-5 µM
[2] = biological target: T1, Speckle-type POZ protein-Bromodomain-containing protein 4; assay: PROTAC activity at SPOP/BRD4-S in human HT-29 cells assessed as induction of BRD4 short isoform degradation incubated for 24 hrs by Western blotting analysis; format: cell-based
[3] = biological target: T1, Speckle-type POZ protein-Bromodomain-containing protein 4; assay: PROTAC activity at SPOP/BRD4-L in human HT-29 cells assessed as induction of BRD4 long isoform degradation by measuring fold change at 0.156 uM incubated for 24 hrs by Western blotting analysis (reference value: 1.00); format: cell-based
[4] = biological target: T1, Speckle-type POZ protein-Bromodomain-containing protein 4; assay: PROTAC activity at SPOP/BRD4-L in human HT-29 cells assessed as induction of BRD4 long isoform degradation by measuring fold change at 0.625 uM incubated for 24 hrs by Western blotting analysis (reference value: 1.00); format: cell-based
[5] = biological target: T1, Speckle-type POZ protein-Bromodomain-containing protein 4; assay: PROTAC activity at SPOP/BRD4-L in human HT-29 cells assessed as induction of BRD4 long isoform degradation by measuring fold change at 2.5 uM incubated for 24 hrs by Western blotting analysis (reference value: 1.00); format: cell-based
[6] = biological target: T1, Speckle-type POZ protein-Bromodomain-containing protein 4; assay: PROTAC activity at SPOP/BRD4-S in human HT-29 cells assessed as induction of BRD4 short isoform degradation by measuring fold change at 2.5 uM incubated for 24 hrs by Western blotting analysis (reference value: 1.00); format: cell-based
[7] = biological target: T1, Speckle-type POZ protein-Bromodomain-containing protein 4; assay: PROTAC activity at SPOP/BRD4-S in human HT-29 cells assessed as induction of BRD4 short isoform degradation by measuring fold change at 5 uM incubated for 24 hrs by Western blotting analysis (reference value: 1.00); format: cell-based
[8] = biological target: T1, Speckle-type POZ protein-Bromodomain-containing protein 4; assay: PROTAC activity at SPOP/BRD4-S in human HT-29 cells assessed as induction of BRD4 short isoform degradation by measuring fold change at 10 uM incubated for 24 hrs by Western blotting analysis (reference value: 1.00); format: cell-based
[9] = biological target: T2, Speckle-type POZ protein-Bromodomain-containing protein 3 (Homo sapiens) (UniProt Q15059+O43791); assay: PROTAC activity at SPOP/BRD3 in human HT-29 cells assessed as induction of BRD3 degradation by measuring fold change at 1.25 uM incubated for 24 hrs by Western blot analysis (reference value: 1.00); format: cell-based
[10] = biological target: T3, Speckle-type POZ protein-Bromodomain-containing protein 2 (Homo sapiens) (UniProt P25440+O43791); assay: PROTAC activity at SPOP/BRD2 in human HT-29 cells assessed as induction of BRD2 degradation by measuring fold change at 0.313 uM incubated for 24 hrs by Western blot analysis (reference value: 1.00); format: cell-based
[11] = biological target: T3, Speckle-type POZ protein-Bromodomain-containing protein 2 (Homo sapiens); assay: PROTAC activity at SPOP/BRD2 in human HT-29 cells assessed as induction of BRD2 degradation by measuring fold change at 1.25 uM incubated for 24 hrs by Western blot analysis (reference value: 1.00); format: cell-based
[12] = biological target: T3, Speckle-type POZ protein-Bromodomain-containing protein 2 (Homo sapiens); assay: PROTAC activity at SPOP/BRD2 in human HT-29 cells assessed as induction of BRD2 degradation by measuring fold change at 2.5 uM incubated for 24 hrs by Western blot analysis (reference value: 1.00); format: cell-based
[13] = biological target: T3, Speckle-type POZ protein-Bromodomain-containing protein 2 (Homo sapiens); assay: PROTAC activity at SPOP/BRD2 in human HT-29 cells assessed as induction of BRD2 degradation by measuring fold change at 10 uM incubated for 24 hrs by Western blot analysis (reference value: 1.00); format: cell-based
[14] = biological target: T4, Bromodomain-containing protein 4 (Homo sapiens, UniProt O60885); assay: Inhibition of BRD4 in human HT-29 cells assessed as decrease in c-MYC protein level by measuring fold change at 0.313 uM incubated for 24 hrs by Western blot analysis (reference value: 1.00); format: cell-based
[15] = biological target: T4, Bromodomain-containing protein 4; assay: Inhibition of BRD4 in human HT-29 cells assessed as decrease in c-MYC protein level by measuring fold change at 0.625 uM incubated for 24 hrs by Western blot analysis (reference value: 1.00); format: cell-based
[16] = biological target: T4, Bromodomain-containing protein 4; assay: Inhibition of BRD4 in human HT-29 cells assessed as decrease in c-MYC protein level by measuring fold change at 2.5 uM incubated for 24 hrs by Western blot analysis (reference value: 1.00); format: cell-based
[17] = biological target: T4, Bromodomain-containing protein 4; assay: Inhibition of BRD4 in human HT-29 cells assessed as decrease in c-MYC protein level by measuring fold change at 5 uM incubated for 24 hrs by Western blot analysis (reference value: 1.00); format: cell-based
[18] = biological target: T1, Speckle-type POZ protein-Bromodomain-containing protein 4; assay: PROTAC activity at SPOP/BRD4-S in human HT-29 cells assessed as induction of BRD4 short isoform degradation at 5 uM measured after 16 to 72 hrs by Western blotting analysis; format: cell-based; conditions: time 16-72 hrs
[19] = biological target: T1, Speckle-type POZ protein-Bromodomain-containing protein 4; assay: PROTAC activity at SPOP/BRD4-L in human HT-29 cells assessed as induction of BRD4 long isoform degradation at 5 uM measured after >=48 hrs by Western blotting analysis; format: cell-based
[20] = biological target: T2, Speckle-type POZ protein-Bromodomain-containing protein 3 (Homo sapiens); assay: PROTAC activity at SPOP/BRD3 in human HT-29 cells assessed as induction of BRD3 degradation at 5 uM measured after >=48 hrs by Western blot analysis; format: cell-based
[21] = biological target: T3, Speckle-type POZ protein-Bromodomain-containing protein 2 (Homo sapiens); assay: PROTAC activity at SPOP/BRD2 in human HT-29 cells assessed as induction of BRD2 degradation at 5 uM measured after >=48 hrs by Western blot analysis; format: cell-based
[22] = biological target: T1, Speckle-type POZ protein-Bromodomain-containing protein 4; assay: PROTAC activity at SPOP/BRD4-L in human MDA-MB-231 cells assessed as induction of BRD4 long isoform degradation at 0.1 to 5 uM incubated for 24 hrs by Western blotting analysis; format: cell-based; conditions: dose 0.1-5 µM
[23] = biological target: T1, Speckle-type POZ protein-Bromodomain-containing protein 4; assay: PROTAC activity at SPOP/BRD4-S in human HT-29 cells assessed as induction of BRD4 short isoform degradation at 5 uM preincubated with JQ1 for 2 hrs followed by compound addition and measured after 24 hrs by Western blot analysis; format: cell-based
[24] = biological target: T1, Speckle-type POZ protein-Bromodomain-containing protein 4; assay: PROTAC activity at SPOP/BRD4-S in human HT-29 cells assessed as induction of BRD4 short isoform degradation at 5 uM preincubated with MLN4924 for 2 hrs followed by compound addition and measured after 24 hrs by Western blot analysis; format: cell-based
HT-29 [25] = assay: Antiproliferative activity against human HT-29 cells assessed as cell growth inhibition incubated for 3 days by WST-8 reagent based assay; format: functional
HT-29 [26] = assay: Binding affinity to BRD4-L/GLP/SPOP in human HT-29 cells assessed as compound-BRD4-GLP-SPOP quaternary complex formation at 20 to 100 uM incubated for 1 hrs by pulldown based Western blot analysis; format: cell-based; conditions: dose 20-100 µM
HEK293T = assay: Binding affinity to BRD4-L/GLP/SPOP in HEK293T cells assessed as compound-BRD4-GLP-SPOP quaternary complex formation at 20 to 100 uM incubated for 1 hrs by pulldown based Western blot analysis; format: cell-based; conditions: Homo sapiens, dose 20-100 µM

T3 sequence (O43791 whole entry, looked up): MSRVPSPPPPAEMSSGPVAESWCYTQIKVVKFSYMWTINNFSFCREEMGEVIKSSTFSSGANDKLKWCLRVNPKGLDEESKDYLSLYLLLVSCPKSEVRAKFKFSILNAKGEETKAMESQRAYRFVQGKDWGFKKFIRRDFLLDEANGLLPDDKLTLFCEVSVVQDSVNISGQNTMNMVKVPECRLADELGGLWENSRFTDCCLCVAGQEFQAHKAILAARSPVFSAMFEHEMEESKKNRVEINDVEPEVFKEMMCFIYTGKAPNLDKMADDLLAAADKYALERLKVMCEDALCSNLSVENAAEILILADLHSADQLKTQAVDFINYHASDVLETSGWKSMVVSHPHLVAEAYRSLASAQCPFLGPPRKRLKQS
T3 sequence (P25440 whole entry, looked up): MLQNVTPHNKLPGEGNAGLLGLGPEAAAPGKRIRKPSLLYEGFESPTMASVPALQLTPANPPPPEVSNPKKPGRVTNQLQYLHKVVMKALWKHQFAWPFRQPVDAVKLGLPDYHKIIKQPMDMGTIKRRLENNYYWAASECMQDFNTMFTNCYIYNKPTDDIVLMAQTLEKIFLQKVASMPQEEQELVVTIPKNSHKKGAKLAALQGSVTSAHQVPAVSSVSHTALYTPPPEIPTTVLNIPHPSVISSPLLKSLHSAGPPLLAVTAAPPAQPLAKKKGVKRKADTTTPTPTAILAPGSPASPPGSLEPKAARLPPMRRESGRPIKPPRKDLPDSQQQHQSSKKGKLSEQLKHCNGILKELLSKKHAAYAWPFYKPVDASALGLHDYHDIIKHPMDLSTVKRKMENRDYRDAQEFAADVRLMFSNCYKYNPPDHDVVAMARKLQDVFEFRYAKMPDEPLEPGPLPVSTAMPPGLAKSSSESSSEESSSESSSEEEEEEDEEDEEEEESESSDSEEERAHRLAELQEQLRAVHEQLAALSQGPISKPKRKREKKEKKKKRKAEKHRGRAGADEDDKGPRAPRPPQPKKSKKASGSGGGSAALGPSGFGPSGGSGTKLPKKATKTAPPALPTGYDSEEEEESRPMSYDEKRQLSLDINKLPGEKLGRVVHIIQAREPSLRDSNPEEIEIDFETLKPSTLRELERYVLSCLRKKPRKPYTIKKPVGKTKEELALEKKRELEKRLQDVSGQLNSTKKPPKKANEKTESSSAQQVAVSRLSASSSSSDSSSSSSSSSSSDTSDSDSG
T1 sequence (O43791 whole entry, looked up, other chains not shown, canonical isoform): as the sequence (O43791 whole entry, looked up) above
T2 sequence (O43791 whole entry, looked up): as above
T2 sequence (Q15059 whole entry, looked up): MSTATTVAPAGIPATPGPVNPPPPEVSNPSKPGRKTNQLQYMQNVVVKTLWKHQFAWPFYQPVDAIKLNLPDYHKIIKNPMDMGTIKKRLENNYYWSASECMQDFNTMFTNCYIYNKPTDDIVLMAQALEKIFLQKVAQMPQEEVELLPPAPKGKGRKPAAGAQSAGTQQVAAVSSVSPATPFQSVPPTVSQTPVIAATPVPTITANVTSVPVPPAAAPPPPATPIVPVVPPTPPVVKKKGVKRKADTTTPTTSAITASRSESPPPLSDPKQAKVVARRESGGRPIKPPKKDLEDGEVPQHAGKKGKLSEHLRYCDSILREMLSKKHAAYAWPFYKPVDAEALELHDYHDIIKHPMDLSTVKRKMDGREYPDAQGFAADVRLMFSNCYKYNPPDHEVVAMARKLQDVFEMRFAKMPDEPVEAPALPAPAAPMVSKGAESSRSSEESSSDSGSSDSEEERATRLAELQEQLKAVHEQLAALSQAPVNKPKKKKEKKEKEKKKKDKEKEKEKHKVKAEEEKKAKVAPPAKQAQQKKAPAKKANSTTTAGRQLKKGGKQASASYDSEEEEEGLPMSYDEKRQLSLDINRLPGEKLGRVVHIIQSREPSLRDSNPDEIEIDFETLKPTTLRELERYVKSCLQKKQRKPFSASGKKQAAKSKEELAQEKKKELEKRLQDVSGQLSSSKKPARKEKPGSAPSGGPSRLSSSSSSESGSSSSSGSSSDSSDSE

COc1cc2c(NC3CCN(CCCC(=O)NCCCCCCCCCCNC(=O)C[C@@H]4N=C(c5ccc(Cl)cc5)c5c(sc(C)c5C)-n5c(C)nnc54)CC3)cc(N3CCOCC3)nc2cc1OCCCN1CCCC1
Activity [1]: Active | Activity [2]: Dose-dependent-effect | DC50 [2]: 6.2 µM | fold change (FC) [3]: 1.2 | fold change (FC) [4]: 1.2 | fold change (FC) [5]: 1.2 | fold change (FC) [6]: 0.5 | fold change (FC) [7]: 0.4 | fold change (FC) [8]: 0.3 | fold change (FC) [9]: 0.7 | fold change (FC) [10]: 1.2 | fold change (FC) [11]: 1.1 | fold change (FC) [12]: 1 | fold change (FC) [13]: 0.7 | fold change (FC) [14]: 1 | fold change (FC) [15]: 0.7 | fold change (FC) [16]: 0.1 | fold change (FC) [17]: 0.03 | Activity [18]: Active | Activity [19]: Active | Activity [20]: Active | Activity [21]: Active | Activity [22]: Active | Activity [23]: inactive | Activity [24]: inactive | GI50 (HT-29 [25]; HT-29, 72 h, time 3 day): 4.5 µM | Activity (HT-29 [25]; time 3.0 day): Dose-dependent-effect | Activity (HT-29 [26]): Active | Activity (HEK293T): Active

— ChEMBL document CHEMBL6109152, “Harnessing the SPOP E3 Ubiquitin Ligase via a Bridged Proteolysis Targeting Chimera (PROTAC) Strategy for Targeted Protein Degradation” (J Med Chem, 2025)
